In patent US20250096297A1, “NOVEL AQUEOUS-PHASE REDOX FLOW BATTERIES” (KEMIWATT, priority 2022, published 2025):
Values after ≈ are worked out from the molar mass of the structure shown. Like-named read-outs stand apart in the source and are kept apart here. One block for each compound: values may come before it.

Tests used:
[1] = Solubility in water of formula (I) compounds in the presence of different bases (Example 2); settings: for relative solubility, 1,1,3,3-Tetramethyl guanidine: 1.2 mol/L 1,1,3,3-Tetramethyl guanidine; for relative solubility, (NH3)aq: 1.2 mol/L (NH3)aq; for relative solubility, CsOH: 1.2 mol/L CsOH; for relative solubility, KOH: 1.2 mol/L KOH; for relative solubility, LiOH: 1.2 mol/L LiOH; for relative solubility, N-Ethyl pyrrolidine: 1.2 mol/L N-Ethyl pyrrolidine; for relative solubility, NEt3: 1.2 mol/L NEt3; for relative solubility, NMe4OH: 1.2 mol/L NMe4OH; for relative solubility, PBu4OH: 1.2 mol/L PBu4OH; for relative solubility, RbOH: 1.2 mol/L RbOH; for solubility: aqueous NaOH solution, aqueous buffer
[2] = conjugate acid of the base, cited from earlier work
[3] = formed cation, cited from earlier work; for Volume: derived from the literature
[4] = Chemical compatibility of bases with the posolyte: SOC of ferricyanide solution by linear voltammetry; format: physicochemical; settings: 0.5 mol/L ferricyanide, 0.1 mol/L compound, pH about 13, 7 days in sealed flask
physchem [5] = settings: aqueous buffer
physchem [6] = settings: aqueous buffer; remark: listed apart in the source
[7] = relative to solubility in 1 mol/L NaOH
[8] = literature (Charlot) or predicted by COSMO-RS
[9] = footnote b, hexa-coordinate cation within a crystal (Shannon 1976)
[10] = footnote a (Hall, J. Amer. Chem. Soc 1957)

- relative solubility, 1,1,3,3-Tetramethyl guanidine [1, 7]: ×4100
- relative solubility, (NH3)aq [1, 7]: ×50
- relative solubility, CsOH [1, 7]: ×70
- relative solubility, KOH [1, 7]: ×10
- relative solubility, LiOH [1, 7]: ×14
- relative solubility, N-Ethyl pyrrolidine [1, 7]: ×2000
- relative solubility, NEt3 [1, 7]: ×2000
- relative solubility, NMe3 ([1]; 1.2 mol/L NMe3, relative to solubility in 1 mol/L NaOH): ×2000
- relative solubility, NMe4OH [1, 7]: ×3700
- relative solubility, PBu4OH [1, 7]: ×4100
- relative solubility, RbOH [1, 7]: ×150
- solubility [1]: 0.25 mM
Structure (SMILES): O=C(O)c1ccc2c(c1)C(=O)c1ccccc1C2=O

Structure (SMILES): CN(C)C(=N)N(C)C [1,1,3,3-Tetramethyl guanidine, 1,1,3,3-tetramethylguanidine]
- pKa [2, 8]: 13.0

Structure (SMILES): N [Ammonia]
- Volume [3]: 13.6 Å^3
- Radius ([3]; footnote c (Sidey 2016)): 1.48^c Å

Structure (SMILES): [Cs+].[OH-] [Caesium hydroxide]
- Volume [3]: 19.5 Å^3
- Radius [3, 9]: 1.67^b Å

Structure (SMILES): C[N+](C)(C)CCO.[OH-] [CholineOH, choline hydroxide]
- SOC after a contact time of 7 days with ferricyanide [4]: 82.7%

Structure (SMILES): C1CCC2=NCCCN2CC1 [DBU, 1,8-diazabicyclo[5.4.0]undec-7-ene]
- pKa [2, 8]: 13.5

Structure (SMILES): CCCCCCCCCCCC[N+](C)(C)CCCCCCCCCCCC [Didodecyl, dimethyl ammonium, didodecyldimethylammonium hydroxide]
- pKa [2, 8]: 14

Structure (SMILES): CCN(C)C [Dimethyl, ethyl amine, ethyldimethylamine]
- pKa [2, 10]: 10.0^a

Structure (SMILES): [Li+].[OH-] [Lithium hydroxide]
- Volume [3]: 1.8 Å^3
- Radius [3, 9]: 0.76^b Å

Structure (SMILES): CCN(C)CC [Methyl, diethyl amine, diethylmethylamine]
- pKa [2, 10]: 10.3^a

Structure (SMILES): C[N+]1(C)CCCCC1.[OH-] [N,N-Dimethyl piperidinium, N,N-dimethylpiperidinium hydroxide]
- pKa [2, 8]: 14

Structure (SMILES): C[N+]1(C)CCCC1.[OH-] [N,N-Dimethyl pyrrolidinium, N,N-dimethylpyrrolidinium hydroxide]
- pKa [2, 8]: 14

Structure (SMILES): CCN1CCCCC1 [N-Ethyl piperidine, N-ethylpiperidine]
- pKa [2, 10]: 10.4^a

Structure (SMILES): CCN1CCCC1 [N-Ethyl pyrrolidine, N-ethylpyrrolidine]
- pKa [2, 8]: 10.7

Structure (SMILES): C[n+]1ccccc1.[OH-] [N-Methyl pyridinium, N-methylpyridinium hydroxide]
- pKa [2, 8]: 14

Structure (SMILES): CN1CCCC1 [N-Methyl pyrrolidine, N-methylpyrrolidine]
- pKa [2, 10]: 10.5^a

Structure (SMILES): [K+].[OH-] [Potassium hydroxide]
- Volume [3]: 11.0 Å^3
- Radius [3, 9]: 1.38^b Å

Structure (SMILES): [OH-].[Rb+] [Rubidium hydroxide]
- Volume [3]: 14.7 Å^3
- Radius [3, 9]: 1.52^b Å

Structure (SMILES): [Na+].[OH-] [Sodium hydroxide]
- Volume [3]: 4.4 Å^3
- Radius [3, 9]: 1.02^b Å

Structure (SMILES): C[N+](C)(C)C [Tetramethyl ammonium, tetramethylammonium hydroxide]
- pKa [2, 8]: 14

Structure (SMILES): C[N+](C)(C)Cc1ccccc1.[OH-] [Tetramethyl, benzyl ammonium, trimethyl benzylammonium hydroxide]
- pKa [2, 8]: 14

Structure (SMILES): CCCCCCCCCCCCCCCC[N+](C)(C)C [Trimethyl, cetyl ammonium, trimethyl cetylammonium hydroxide]
- pKa [2, 8]: 14

- solubility (physchem [5]): 23 mM (≈ 5520 µg/mL)
Structure (SMILES): O=C1c2ccccc2C(=O)c2c1ccc(O)c2O [alizarin]

- relative solubility, 1,1,3,3-Tetramethyl guanidine [1, 7]: ×82
- relative solubility, (NH3)aq [1, 7]: ×3
- relative solubility, CsOH [1, 7]: ×32
- relative solubility, DBU ([1]; 1.2 mol/L DBU, relative to solubility in 1 mol/L NaOH): ×234
- relative solubility, KOH [1, 7]: ×8
- relative solubility, LiOH [1, 7]: ×0.03
- relative solubility, N-Ethyl pyrrolidine [1, 7]: ×13
- relative solubility, N-Methyl pyrrolidine ([1]; 1.2 mol/L N-Methyl pyrrolidine, relative to solubility in 1 mol/L NaOH): ×7
- relative solubility, NEt3 [1, 7]: ×3
- relative solubility, NMe4OH [1, 7]: ×213
- relative solubility, PBu4OH [1, 7]: ×211
- relative solubility, RbOH [1, 7]: ×16
- relative solubility, Trimethyl, benzyl ammonium ([1]; 1.2 mol/L Trimethyl, benzyl ammonium, relative to solubility in 1 mol/L NaOH): ×255
- solubility [1]: 3.8 mM
Structure (SMILES): O=C1c2ccccc2C(=O)c2c(O)ccc(O)c21 [drawing 31, quinizarin]

- SOC after a contact time of 7 days with ferricyanide [4]: 77.7%
Structure (SMILES): O=C(O)[C@@H]1CCCN1 [proline]

- solubility (physchem [6]): 31 mM (≈ 7450 µg/mL)
Structure (SMILES): O=C1c2ccccc2C(=O)c2c(O)ccc(O)c21 [quinizarin]
